Where two headings read alike, the source gives them in different places. Ends that are not written are not given here.
Experiment: Clinical test in humans, single 30-min i.v. infusion, plasma PK
Format: in vivo
Conditions: human; for AUC(0-inf) / Cmax / Vd / clearance / AUC(0-t) / half-life / Tmax: in vivo, iv
Experimental: A total of 8 healthy subjects were included in each group. Group 1 received 25 μg/kg of Peptide 1, Group 2 received 50 μg/kg of Peptide 1, Group 3 received 100 μg/kg of Peptide 1, Group 4 received 150 μg/kg of Peptide 1, Group 5 received 200 μg/kg of Peptide 1 and Group 7 received 400 μg/kg of Peptide 1.
The tested liquid pharmaceutical composition has a pH of 8.2-8.4, and comprises the following: • i) 5 mg/ml of Peptide 1, • ii) 4% (w/w) mannitol, • iii) 1% (w/w) sucrose, • iv) 0.01% (w/w) Polysorbate-80, • v) 10 mM glycyl-glycine, and • vi) sterile water for injection.
In these groups, 6 subjects received the active treatment (i.e. a single Peptide 1 30-min intravenous (i.v.) infusion corresponding to the above doses) and 2 received the placebo. In order to prevent any anticipated unblinding, the subjects under active treatment were recorded by the bioanalytical laboratory.
Blood samples were collected for PK purpose for Peptide 1 determinations on Day 1 at the following time points: pre-dose, then, 10 min, 20 min, 30 min (30 min=0.5), 0.75, 1.0, 1.5, 2.0, 2.5, 3.0, 4.0, 6.0, 8.0, 12.0, 16.0 and 24.0 h after the infusion start.
Venous whole blood samples were collected from all subjects.
Plasma samples were analyzed for Peptide 1 using validated Liquid chromatography—Tandem Mass spectrometry (LC-MS/MS) methods by Charles River Laboratories (CRL).
Derivation of PK parameters were carried out by PhinC Development using Phoenix WinNonlin® (Version Phoenix 8.1—Certara—Princeton—USA). A non-compartmental analysis (NCA) approach was chosen.
For the calculation of the PK parameters and characteristics the following rules were applied: • All the plasma concentrations validated by the bioanalytical laboratory and provided to the pharmacokineticist were used for the PK analysis. • The theoretical PK blood sampling time points were used. • At time points in the lag-time between time zero and the first concentration equal or above limit of quantification (LOQ), concentrations below the LOQ (BLQ) were set to zero (0). • Concentrations BLQ between 2 concentrations equal or above LOQ were considered as missing. • Trailing concentrations (at time point between time of last measurable concentrations and time of last blood sample) BLQ were not used in calculations. • For concentration above the upper limit of quantification and reported as above limit of quantification (ALQ) in the final plasma concentration tables, ALQ was considered as missing for the PK analysis. • Not reported (NR) concentration was excluded from the PK analysis. • For the first administration, if pre-dose concentration was less than or equal to 5% of Cmax value in a PK profile, the subject's data was included in all PK measurements and calculations without any adjustments. If the pre-dose value was greater than 5% of Cmax, the subject was dropped from all statistical evaluations.
The following PK parameters of Peptide 1, were derived for each subject receiving the active treatment on Day 1: • Cmax: The observed maximum concentration in plasma measured in a subject after dosing identified by inspection of the plasma drug concentration versus (vs.) time data by WinNonlin®. • tmax: The time at which Cmax was apparent, identified by inspection of the plasma drug concentration vs. time data by Phoenix WinNonlin®. • AUC0-24: The area under the concentration-time curve from time zero (pre-dose) to 24 h was calculated using a linear trapezoidal method. AUC0-24 was only calculated if there were at least 3 concentrations above LOQ. • AUC0-t: The area under the concentration-time curve from time zero (pre-dose) to the time of last quantifiable concentration was calculated using a linear trapezoidal method. The AUC was only calculated if there were at least 3 concentrations above LOQ. • ke: The terminal plasma elimination rate-constant was estimated from log-linear regression analysis of the terminal phase of the plasma concentration-time profile. […]

[1] = 25 ug/kg, single 30-min i.v. infusion 25 μg/kg, GM
[2] = 50 ug/kg, single 30-min i.v. infusion 50 μg/kg, mean
[3] = 100 ug/kg, single 30-min i.v. infusion 100 μg/kg, mean
[4] = 150 ug/kg, single 30-min i.v. infusion 150 μg/kg, GM
[5] = 150 ug/kg, single 30-min i.v. infusion 150 μg/kg, mean
[6] = 200 ug/kg, single 30-min i.v. infusion 200 μg/kg, GM
[7] = 400 ug/kg, single 30-min i.v. infusion 400 μg/kg, mean
[8] = single 30-min i.v. infusion 25 μg/kg, mean
[9] = single 30-min i.v. infusion 50 μg/kg, GM
[10] = single 30-min i.v. infusion 100 μg/kg, GM
[11] = single 30-min i.v. infusion 200 μg/kg, mean
[12] = single 30-min i.v. infusion 400 μg/kg, GM
[13] = single 30-min i.v. infusion 400 μg/kg, mean

increase of exposure parameters (Cmax and AUCs) (between 100 μg/kg and 400 μg/kg (dose increased by 4-fold)): about 4.3 fold
increase of exposure parameters (Cmax and AUCs) (between 150 μg/kg and 400 μg/kg (dose increased by 2.7-fold)): around 3.2 fold
increase of exposure parameters (Cmax and AUCs) (between 200 μg/kg and 400 μg/kg (dose increased by 2 fold)): around 2 fold
AUC(0-inf) [1]: 211 ng·h/mL
Cmax [1]: 161 ng/mL
Vd [1]: 0.13 L/kg
clearance [1]: 2 mL/min/kg
AUC(0-t) (25 ug/kg, single 30-min i.v. infusion 25 μg/kg, GM, read-out: AUC0-24): 211 ng·h/mL
AUC(0-t) (25 ug/kg, single 30-min i.v. infusion 25 μg/kg, GM, read-out: AUC0-t): 130 ng·h/mL
half-life (25 ug/kg, single 30-min i.v. infusion 25 μg/kg, GM, read-out: t1/2 (converted)): 47.4 min
Vd (25 ug/kg, single 30-min i.v. infusion 25 μg/kg, mean): 0.14 L/kg
AUC(0-t) (25 ug/kg, single 30-min i.v. infusion 25 μg/kg, mean, read-out: AUC0-t): 132 ng·h/mL
AUC(0-inf) (50 ug/kg, single 30-min i.v. infusion 50 μg/kg, GM): 456 ng·h/mL
AUC(0-t) (50 ug/kg, single 30-min i.v. infusion 50 μg/kg, GM, read-out: AUC0-24): 457 ng·h/mL
AUC(0-t) (50 ug/kg, single 30-min i.v. infusion 50 μg/kg, GM, read-out: AUC0-t): 369 ng·h/mL
half-life (50 ug/kg, single 30-min i.v. infusion 50 μg/kg, GM, read-out: t1/2 (converted)): 54 min
AUC(0-inf) [2]: 464 ng·h/mL
Cmax [2]: 375 ng/mL
Vd [2]: 0.14 L/kg
clearance [2]: 1.83 mL/min/kg
AUC(0-t) (50 ug/kg, single 30-min i.v. infusion 50 μg/kg, mean, read-out: AUC0-24): 464 ng·h/mL
AUC(0-t) (50 ug/kg, single 30-min i.v. infusion 50 μg/kg, mean, read-out: AUC0-t): 378 ng·h/mL
half-life (50 ug/kg, single 30-min i.v. infusion 50 μg/kg, mean, read-out: t1/2 (converted)): 55.2 min
Cmax (100 ug/kg, single 30-min i.v. infusion 100 μg/kg, GM): 899 ng/mL
half-life (100 ug/kg, single 30-min i.v. infusion 100 μg/kg, GM, read-out: t1/2 (converted)): 67.8 min
AUC(0-inf) [3]: 1110 ng·h/mL
Cmax [3]: 916 ng/mL
Vd [3]: 0.15 L/kg
clearance [3]: 1.5 mL/min/kg
AUC(0-t) (100 ug/kg, single 30-min i.v. infusion 100 μg/kg, mean, read-out: AUC0-24): 1110 ng·h/mL
AUC(0-t) (100 ug/kg, single 30-min i.v. infusion 100 μg/kg, mean, read-out: AUC0-t): 1000 ng·h/mL
half-life (100 ug/kg, single 30-min i.v. infusion 100 μg/kg, mean, read-out: t1/2 (converted)): 69 min
AUC(0-inf) [4]: 1490 ng·h/mL
Cmax [4]: 1250 ng/mL
Vd [4]: 0.16 L/kg
AUC(0-t) (150 ug/kg, single 30-min i.v. infusion 150 μg/kg, GM, read-out: AUC0-24): 1490 ng·h/mL
AUC(0-t) (150 ug/kg, single 30-min i.v. infusion 150 μg/kg, GM, read-out: AUC0-t): 1370 ng·h/mL
half-life (150 ug/kg, single 30-min i.v. infusion 150 μg/kg, GM, read-out: t1/2 (converted)): 67.8 min
AUC(0-inf) [5]: 1520 ng·h/mL
Cmax [5]: 1280 ng/mL
Vd [5]: 0.17 L/kg
clearance [5]: 1.67 mL/min/kg
AUC(0-t) (150 ug/kg, single 30-min i.v. infusion 150 μg/kg, mean, read-out: AUC0-24): 1520 ng·h/mL
AUC(0-t) (150 ug/kg, single 30-min i.v. infusion 150 μg/kg, mean, read-out: AUC0-t): 1400 ng·h/mL
half-life (150 ug/kg, single 30-min i.v. infusion 150 μg/kg, mean, read-out: t1/2 (converted)): 69 min
AUC(0-inf) [6]: 2280 ng·h/mL
Cmax [6]: 1700 ng/mL
Vd [6]: 0.18 L/kg
clearance [6]: 1.5 mL/min/kg
AUC(0-t) (200 ug/kg, single 30-min i.v. infusion 200 μg/kg, GM, read-out: AUC0-24): 2280 ng·h/mL
AUC(0-t) (200 ug/kg, single 30-min i.v. infusion 200 μg/kg, GM, read-out: AUC0-t): 2120 ng·h/mL
half-life (200 ug/kg, single 30-min i.v. infusion 200 μg/kg, GM, read-out: t1/2 (converted)): 86.4 min
AUC(0-inf) [7]: 4870 ng·h/mL
Vd [7]: 0.19 L/kg
clearance [7]: 1.33 mL/min/kg
AUC(0-t) (400 ug/kg, single 30-min i.v. infusion 400 μg/kg, mean, read-out: AUC0-24): 4870 ng·h/mL
AUC(0-t) (400 ug/kg, single 30-min i.v. infusion 400 μg/kg, mean, read-out: AUC0-t): 4720 ng·h/mL
half-life (400 ug/kg, single 30-min i.v. infusion 400 μg/kg, mean, read-out: t1/2 (converted)): 98.4 min
AUC(0-inf) [8]: 211 ng·h/mL
Cmax [8]: 162 ng/mL
clearance [8]: 2 mL/min/kg
AUC(0-t) (single 30-min i.v. infusion 25 μg/kg, mean, read-out: AUC0-24): 211 ng·h/mL
half-life (single 30-min i.v. infusion 25 μg/kg, mean, read-out: t1/2 (converted)): 47.4 min
Cmax [9]: 371 ng/mL
Vd [9]: 0.14 L/kg
clearance [9]: 1.83 mL/min/kg
AUC(0-inf) [10]: 1100 ng·h/mL
Vd [10]: 0.15 L/kg
clearance [10]: 1.5 mL/min/kg
AUC(0-t) (single 30-min i.v. infusion 100 μg/kg, GM, read-out: AUC0-24): 1100 ng·h/mL
AUC(0-t) (single 30-min i.v. infusion 100 μg/kg, GM, read-out: AUC0-t): 991 ng·h/mL
clearance (single 30-min i.v. infusion 150 μg/kg, GM): 1.67 mL/min/kg
AUC(0-inf) [11]: 2280 ng·h/mL
Cmax [11]: 1700 ng/mL
Vd [11]: 0.18 L/kg
clearance [11]: 1.5 mL/min/kg
AUC(0-t) (single 30-min i.v. infusion 200 μg/kg, mean, read-out: AUC0-24): 2280 ng·h/mL
AUC(0-t) (single 30-min i.v. infusion 200 μg/kg, mean, read-out: AUC0-t): 2120 ng·h/mL
half-life (single 30-min i.v. infusion 200 μg/kg, mean, read-out: t1/2 (converted)): 87 min
AUC(0-inf) [12]: 4840 ng·h/mL
Cmax [12]: 3400 ng/mL
Vd [12]: 0.19 L/kg
clearance [12]: 1.33 mL/min/kg
AUC(0-t) (single 30-min i.v. infusion 400 μg/kg, GM, read-out: AUC0-24): 4840 ng·h/mL
AUC(0-t) (single 30-min i.v. infusion 400 μg/kg, GM, read-out: AUC0-t): 4690 ng·h/mL
half-life (single 30-min i.v. infusion 400 μg/kg, GM, read-out: t1/2 (converted)): 97.2 min
Cmax [13]: 3420 ng/mL
Vd [13]: ~0.19 L/kg
clearance [13]: ~1.33 mL/min/kg
half-life (single 30-min i.v. infusion, range at all dose levels, read-out: GM t1/2): 48 to 96 min
time of first measurable concentrations after the start of infusion (single 30-min i.v. infusion, all subjects): 0.16 h
time up to which concentrations were measurable in all subjects after the start of infusion (single 30-min i.v. infusion, highest dose): at least 6 hours
time up to which concentrations were measurable in all subjects after start of the infusion (single 30-min i.v. infusion, lowest dose): at least 1 hour
Tmax [1]: 30 min
Tmax (50 ug/kg, single 30-min i.v. infusion 50 μg/kg, median): 30 min
Tmax (100 ug/kg, single 30-min i.v. infusion 100 μg/kg, median): 30 min
Tmax (150 ug/kg, single 30-min i.v. infusion 150 μg/kg, median): 30 min
Tmax [6]: 30 min
Tmax (400 ug/kg, single 30-min i.v. infusion 400 μg/kg, median): 30 min
Tmax (single 30-min i.v. infusion, all subjects (time of the end of infusion)): 30 min
Substance: AMVSEFLKQAWFIENEEQEYVQTLKSSKGGPGSAVSPYPTFNPSSDV-NH2 [Peptide 1]

From patent publication US20250345392A1, “ANNEXIN A1 LIQUID PHARMACEUTICAL COMPOSITION” (ResoTher Pharma A/S, priority 2022, published 2025)
